Results as given in patent US12077503B2, “Substituted cyclic amides and their use as herbicides” (FMC CORPORATION, priority 2015, dated 2024).

Experiments:
Type in all cases: in vivo
[1] = system: Kochia (Kochia scoparia); assay: Test A preemergence; settings: Bassia scoparia, pre-emergence, 240 h, 0 to 100 scale where 0 is no effect and 100 is complete control, read-out: Kochia plant response rating
How it was run: (§1)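 Ratings of 0 (no effect) to 100 (complete control) come from visual comparison with untreated controls roughly 10 d after treatment. Test chemicals, formulated in a non-phytotoxic solvent mixture with surfactant, were applied either as a preemergence directed soil spray on seeded soil or postemergence to one- to two-leaf plants 2 to 10 cm tall.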

[2] = system: barnyardgrass (Echinochloa crus-galli); assay: Test A preemergence; settings: Echinochloa crus-galli, pre-emergence, 240 h, 0 to 100 scale where 0 is no effect and 100 is complete control, read-out: Barnyardgrass plant response rating
How it was run: as §1

[3] = system: giant foxtail (Setaria faberii); assay: Test A preemergence; settings: Setaria faberi, pre-emergence, 240 h, 0 to 100 scale where 0 is no effect and 100 is complete control, read-out: Foxtail, Giant plant response rating
How it was run: as §1

[4] = system: pigweed (Amaranthus retroflexus); assay: Test A preemergence; settings: Amaranthus retroflexus, pre-emergence, 240 h, 0 to 100 scale where 0 is no effect and 100 is complete control, read-out: Pigweed plant response rating
[5] = system: ragweed (common ragweed, Ambrosia elatior); assay: Test A preemergence; settings: Ambrosia artemisiifolia, pre-emergence, 240 h, 0 to 100 scale where 0 is no effect and 100 is complete control, read-out: Ragweed plant response rating
How it was run: as §1

[6] = system: ryegrass, Italian (Italian ryegrass, Lolium multiflorum); assay: Test A preemergence; settings: Lolium multiflorum, pre-emergence, 240 h, 0 to 100 scale where 0 is no effect and 100 is complete control, read-out: Ryegrass, Italian plant response rating
How it was run: as §1

[7] = system: Galium (catchweed bedstraw, Galium aparine); assay: Test A postemergence; settings: Galium, post-emergence, 240 h
How it was run: as §1

[8] = system: Kochia (Kochia scoparia); assay: Test A postemergence; settings: Bassia scoparia, post-emergence, 240 h
How it was run: as §1

[9] = system: barnyardgrass (Echinochloa crus-galli); assay: Test A postemergence; settings: Echinochloa crus-galli, post-emergence, 240 h
How it was run: as §1

[10] = system: blackgrass (Alopecurus myosuroides); assay: Test A postemergence; settings: Alopecurus myosuroides, post-emergence, 240 h
How it was run: as §1

[11] = system: corn (Zea mays); assay: Test A postemergence; settings: Zea mays, post-emergence, 240 h
How it was run: as §1

[12] = system: giant foxtail (Setaria faberii); assay: Test A postemergence; settings: Setaria faberi, post-emergence, 240 h
How it was run: as §1

[13] = system: pigweed (Amaranthus retroflexus); assay: Test A postemergence; settings: Amaranthus retroflexus, post-emergence, 240 h, 125 g ai/ha, postemergence, visual injury vs untreated controls after approx. 10 d; 0 = no effect, 100 = complete control; read-out: Pigweed plant response rating (0 to 100 scale)
How it was run: as §1

[14] = system: ragweed (common ragweed, Ambrosia elatior); assay: Test A postemergence; settings: Ambrosia artemisiifolia, post-emergence, 240 h, 125 g ai/ha, postemergence, visual injury vs untreated controls after approx. 10 d; 0 = no effect, 100 = complete control; read-out: Ragweed plant response rating (0 to 100 scale)
How it was run: as §1

[15] = system: ryegrass, Italian (Italian ryegrass, Lolium multiflorum); assay: Test A postemergence; settings: Lolium multiflorum, post-emergence, 240 h, 125 g ai/ha, postemergence, visual injury vs untreated controls after approx. 10 d; 0 = no effect, 100 = complete control; read-out: Ryegrass, Italian plant response rating (0 to 100 scale)
How it was run: as §1

[16] = system: wheat (Triticum aestivum); assay: Test A postemergence; settings: Triticum aestivum, post-emergence, 240 h, 125 g ai/ha, postemergence, visual injury vs untreated controls after approx. 10 d; 0 = no effect, 100 = complete control; read-out: Wheat plant response rating (0 to 100 scale)
How it was run: as §1

[17] = system: barnyardgrass (Echinochloa crus-galli); assay: Test B flooded paddy test; settings: Echinochloa crus-galli, 250 g ai/ha, Flood; 0 to 100 scale where 0 is no effect and 100 is complete control; read-out: Barnyardgrass plant response rating
How it was run: (§2)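 Visual ratings (0 none to 100 complete control) are relative to untreated plants, taken 13–15 d after treatment in a greenhouse. Test material went straight into floodwater standing 3 cm above the soil, kept constant, on plants at the 2-leaf stage.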

[18] = system: ducksalad (Heteranthera limosa); assay: Test B flooded paddy test; settings: Heteranthera limosa, 250 g ai/ha, Flood; 0 to 100 scale where 0 is no effect and 100 is complete control; read-out: Ducksalad plant response rating
How it was run: as §2

[19] = system: rice (Oryra sativa); assay: Test B flooded paddy test; settings: Oryza sativa, 250 g ai/ha, Flood; 0 to 100 scale where 0 is no effect and 100 is complete control; read-out: Rice plant response rating
How it was run: as §2

[20] = system: sedge, umbrella (small-flower umbrella sedge, Cyperus difformis); assay: Test B flooded paddy test; settings: Cyperus difformis, 250 g ai/ha, Flood; 0 to 100 scale where 0 is no effect and 100 is complete control; read-out: Sedge, Umbrella plant response rating
How it was run: as §2

[21] = 125 g ai/ha, preemergence, approx. 10 d

Q: What does the source list for `CN1C[C@H](c2cc(F)cc(C(F)(F)F)c2)[C@@H](C(=O)Nc2cccnc2F)C1=O` [Compound 1176]?
A: pest or weed control at 31 g/ha ([1]; 31 g ai/ha, Preemergence): 0%; pest or weed control at 125 g/ha [1, 21]: 40%; pest or weed control at 31 g/ha ([2]; 31 g ai/ha, Preemergence): 90%; pest or weed control at 125 g/ha [2, 21]: 90%; pest or weed control at 31 g/ha ([3]; 31 g ai/ha, Preemergence): 90%; pest or weed control at 125 g/ha [3, 21]: 90%; pest or weed control at 31 g/ha ([4]; 31 g ai/ha, Preemergence): 0%; pest or weed control at 125 g/ha [4, 21]: 40%; pest or weed control at 31 g/ha ([5]; 31 g ai/ha, Preemergence): 0%; pest or weed control at 125 g/ha [5, 21]: 0%; pest or weed control at 31 g/ha ([6]; 31 g ai/ha, Preemergence): 40%; pest or weed control at 125 g/ha [6, 21]: 50%; pest or weed control at 125 g/ha ([7]; 125 g ai/ha, postemergence, visual injury vs untreated controls after approx. 10 d, 0 = no effect, 100 = complete control, read-out: Galium plant response rating (0 to 100 scale)): 50%; pest or weed control at 31 g/ha ([7]; Postemergence, 31 g ai/ha, visual injury after approx. 10 d, 0 to 100 scale, 0 no effect, 100 complete control, read-out: Plant response rating, Galium): 30%; pest or weed control at 125 g/ha ([8]; 125 g ai/ha, postemergence, visual injury vs untreated controls after approx. 10 d, 0 = no effect, 100 = complete control, read-out: Kochia plant response rating (0 to 100 scale)): 40%; pest or weed control at 31 g/ha ([8]; Postemergence, 31 g ai/ha, visual injury after approx. 10 d, 0 to 100 scale, 0 no effect, 100 complete control, read-out: Plant response rating, Kochia): 0%; pest or weed control at 125 g/ha ([9]; 125 g ai/ha, postemergence, visual injury vs untreated controls after approx. 10 d, 0 = no effect, 100 = complete control, read-out: Barnyardgrass plant response rating (0 to 100 scale)): 90%; pest or weed control at 31 g/ha ([9]; Postemergence, 31 g ai/ha, visual injury after approx. 10 d, 0 to 100 scale, 0 no effect, 100 complete control, read-out: Plant response rating, Barnyardgrass): 80%; pest or weed control at 125 g/ha ([10]; 125 g ai/ha, postemergence, visual injury vs untreated controls after approx. 10 d, 0 = no effect, 100 = complete control, read-out: Blackgrass plant response rating (0 to 100 scale)): 70%; pest or weed control at 31 g/ha ([10]; Postemergence, 31 g ai/ha, visual injury after approx. 10 d, 0 to 100 scale, 0 no effect, 100 complete control, read-out: Plant response rating, Blackgrass): 50%; plant injury at 125 g/ha ([11]; 125 g ai/ha, postemergence, visual injury vs untreated controls after approx. 10 d, 0 = no effect, 100 = complete control, read-out: Corn plant response rating (0 to 100 scale)): 90%; Corn plant response rating (crop injury, 0 = no effect, 100 = complete kill) at 31 g/ha ([11]; Postemergence, 31 g ai/ha, visual injury after approx. 10 d, 0 to 100 scale, 0 no effect, 100 complete control): 50%; pest or weed control at 125 g/ha ([12]; 125 g ai/ha, postemergence, visual injury vs untreated controls after approx. 10 d, 0 = no effect, 100 = complete control, read-out: Foxtail, Giant plant response rating (0 to 100 scale)): 80%; pest or weed control at 31 g/ha ([12]; Postemergence, 31 g ai/ha, visual injury after approx. 10 d, 0 to 100 scale, 0 no effect, 100 complete control, read-out: Plant response rating, Foxtail, Giant): 80%; pest or weed control at 125 g/ha [13]: 0%; pest or weed control at 125 g/ha [14]: 30%; pest or weed control at 125 g/ha [15]: 30%; plant injury at 125 g/ha [16]: 90%; pest or weed control at 250 g/ha [17]: 95%; pest or weed control at 250 g/ha [18]: 95%; pest or weed control at 250 g/ha [19]: 0%; pest or weed control at 250 g/ha [20]: 0%
